Experimental findings from US6846845B2, “Heat shock protein inducer” (Eisai Co., Ltd., priority 2002, dated 2005) are described below.

Format in all cases: in vivo, rat
One assay relates to HSP70. In words: Effect of chelerythrine pretreatment on GGA-induced HSP70 expression in the heart (Western immunoblotting), Example 2. Particulars: 24 h after GGA 200 mg/kg oral or vehicle; chelerythrine 5 mg/kg i.v. pretreatment, FIG. 8. On the procedure: (§1) Male Sprague-Dawley rats (220-250 g) were used. GGA, as an emulsion with 5% gum arabic and 0.008% tocopherol, was given orally at a dose of 200 mg/kg. Rats were classified into 4 groups. FIG. 7 is a diagrammatic representation of experimental protocol. […] Twenty-four hours after oral administration of GGA or vehicle, rats were anesthetized (sodium pentobarbital, 50 mg/kg IP) and heparinized (500 IU/kg IP). Hearts were excised, immediately frozen in liquid nitrogen, and stored at −70° C. until use for Western blot analysis (n=4 for each group). […]
(§2) To analyze the expression of HSP70, the frozen heart samples were homogenized with SDS sample buffer (pH 6.8, 20% glycerol, 6% SDS, 0.12M Tris), centrifuged and boiled (Maloyan A, Palmon A, Horowitz M. Heat acclimation increases the basal HSP70 level and alters its production dynamics during heat stress. Am J Physiol. 1999; 276:R1506-R1515.). […] The total protein concentration of heart was quantified by the Bradford method (Bradford MM. A rapid and sensitive method for quantitation of microgram quantities of protein utilizing the principle of protein-dye binding. Anal. Biochem. 1976;72:248-254). […] The proteins were detected by ECL with exposure to Hyperfilm (Amersham Pharmacia). The amount of protein on the immunoblots was quantified using National Institutes of Health image software. […]

Assay [1] concerns heat shock factor 1 (HSF1). Put plainly: HSF1 phosphorylation and translocation in cytosolic and nuclear heart fractions (Western immunoblotting). Particulars: 24 h after GGA 200 mg/kg oral or vehicle; chelerythrine 5 mg/kg i.v. pretreatment, FIG. 9. On the procedure: as §1, §2
The next assay relates to PKCδ. In words: Translocation of PKCδ in particulate and cytosolic heart fractions (Western immunoblotting). Particulars: 24 h after GGA 200 mg/kg oral or vehicle; chelerythrine 5 mg/kg i.v. pretreatment, FIG. 10.
In the next assay the test system is PKC (α, β, γ and ε). Put plainly: Translocation of PKC isoforms α, β, γ and ε in particulate and cytosolic heart fractions (Western immunoblotting). The note with it: 24 h after GGA 200 mg/kg oral or vehicle; chelerythrine 5 mg/kg i.v. pretreatment, FIG. 10.
The next assay relates to isolated perfused heart. In words: Isolated perfused heart experiments (Langendorff, 20 min no-flow global ischemia, 30 min reperfusion), Example 2. On the procedure:
Male Sprague-Dawley rats (220-250 g) were used. GGA, as an emulsion with 5% gum arabic and 0.008% tocopherol, was given orally at a dose of 200 mg/kg. Rats were classified into 4 groups. FIG. 7 is a diagrammatic representation of experimental protocol. […] Twenty-four hours after oral administration of GGA or vehicle, rats were anesthetized (sodium pentobarbital, 50 mg/kg IP) and heparinized (500 IU/kg IP). Hearts were excised, immediately frozen in liquid nitrogen, and stored at −70° C. until use for Western blot analysis (n=4 for each group). To examine the cardiac function during ischemia and reperfusion, hearts of each group were prepared for isolated perfused experiments using Langendorff apparatus (n=7-9 for each group, FIG. 7).
Twenty-four hours after administration-of 200 mg/kg of GGA or vehicle, rats of 4 groups were heparinized (500 IU/kg, IP) and anesthetized with sodium pentobarbital (50 mg/kg, IP). Each heart was isolated and perfused retrogradely using the Langendorff method with Krebs-Henseleit buffer (pH 7.4, [in mM] 118 NaCl, 4.7 KCl, 2.5 CaCl2, 1.2 MgSO4, 1.2 KH2PO4, 25.0 Na2HCO3, 11.0 glucose) equilibrated with 95% O2-5% CO2 gas mixture at 36.5° C. at a constant pressure of 75 mm Hg. A water-filled latex balloon was inserted through the mitral orifice into the left ventricle (LV) and the LV end-diastolic pressure (LVEDP) was adjusted to 0-5 mm Hg. During the initial 10 min of constant pressure perfusion, the perfusion flow rate was determined for each heart, which was then perfused at a determined perfusion rate using a microtube pump while the heart was covered with water-jacketed glassware and the relative humidity maintained at 90% or more. Normothermic no-flow global ischemia was initiated for 20 min, followed by reperfusion for 30 min. The coronary effluent during the 30 min of reperfusion period was collected for measurement of creatine kinase content (released CK).
LV pressure was monitored using a pressure transducer to obtain the peak positive and negative first derivatives of LV pressure (dP/dtmax and dP/dtmin). […] Coronary perfusion pressure (CPP) was defined as the hydraulic pressure measured at the level of aortic cannulation. LV pressure, CPP and electrocardiogram were continuously recorded on a polygraph recorder (WS-681G, Nihon Kohden) and stored on a PCM data recorder (RD-111T, TEAC) for later analysis.
Data are expressed as mean ±SEM. Serial changes in LVDP, LVEDP, CPP, and dP/dt were analyzed by two-way analysis of variance (ANOVA) followed by the Bonferroni/Dunn test, unless otherwise specified. Comparisons among groups with respect to the hemodynamic parameters at baseline and the ratio of released CK to ventricular weight were analyzed by one-way ANOVA followed by the Bonferroni/Dunn test. […]

Consider `COc1ccc2c(c[n+](C)c3c4cc5c(cc4ccc23)OCO5)c1OC` [chelerythrine, reference compound], for which, in the assay on HSP70, the “HSP70 expression in the heart (relative density to control group)” value is listed as “did not influence”. Also, the “amount of phosphorylated form of HSF1 in the nuclear fraction” value in assay [1] is recorded as “did not significantly influence”. Further, the “PKCδ in the particulate fraction / particulate/cytosol ratio versus CNT group” value in the assay with PKCδ is “did not influence”. For the same compound, in the assay on PKC (α, β, γ and ε), the “PKC isoforms α, β, γ and ε in cytosolic and particulate fractions” value is reported as “not influenced”. Moreover, in the assay with isolated perfused heart (30-min reperfusion period after 20 min ischemia, FIG. 12), the “released creatine kinase (CK) relative to ventricular weight” value is given as “similar”. The “recovery of LVDP, LVEDP and dP/dt on reperfusion versus CNT group” value with isolated perfused heart (20 min no-flow global ischemia, 30 min reperfusion, FIG. 11) was “similar”.
